The Deep4Chem optical property database
Values joined by “and” are separate entries in the source; they are usually repeats but may differ in a detail not shown here. Equal entries are not always repeated.

Assay: solvent given as SMILES

In the case of `O=S1(=O)C2=C(c3ccc(N(c4ccccc4)c4ccccc4)cc31)C1(C3=C(c4ccccc41)S(=O)(=O)c1cc(N(c4ccccc4)c4ccccc4)ccc13)c1ccccc12`, the absorption maximum (in C1CCOC1) is reported as 443 nm, the absorption maximum (in CC#N) is reported as 446 nm and the absorption maximum (in CCCCCC) is reported as 434 nm. It also gave an absorption maximum (in Cc1ccccc1) of 450 nm and an absorption maximum (in ClCCl) of 451 nm.
With `CC(C)[Si]1(C(C)C)c2cc(C=O)ccc2-c2ccc(N(C)C)cc21` the absorption maximum (in C1CCCCC1) was 390 nm, the absorption maximum (in CC#N) was 391 nm and the absorption maximum (in CCO) was 395 nm. It also gave an absorption maximum (in CCOCC) of 384 nm, an absorption maximum (in CS(C)=O) of 400 nm and an absorption maximum (in ClCCl) of 397 nm. For the same compound, the absorption maximum (in c1ccccc1) was 392 nm.
Work on `N#C/C(=C(/C#N)c1ccc(-c2ccncc2)cc1)c1ccc(-c2ccncc2)cc1` yielded an absorption maximum (in ClCCl) of 343 nm.
Work on `CCCCCCCCCCCC#CC#CCCCCCCCCCN1C(=O)c2ccc3c4ccc5c6c(ccc(c7ccc(c2c37)C1=O)c64)C(=O)N(CCCCCCCCCC#CC#CCCCCCCCCCCCC)C5=O` yielded an absorption maximum (in ClC(Cl)Cl) of 526 nm.
Work on `COCCOCCOCCOCC(COCCOCCOCCOC)Oc1cc(/C=C/c2ccc(/C=C(\C#N)c3ccccn3)cc2)c(OC(COCCOCCOCCOC)COCCOCCOCCOC)cc1/C=C/c1ccc(/C=C(\C#N)c2ccccn2)cc1` yielded an absorption maximum (in ClCCl) of 443 nm.
Compound `CCCSc1ccc2n1[B-](F)(F)[N+]1=CC=CC1=C2c1ccccc1` has an absorption maximum (in CC#N) of 531 nm, an absorption maximum (in CCCCCC) of 536 nm and an absorption maximum (in CCOC(C)=O) of 534 nm. The absorption maximum (in CO) was 536 nm and the absorption maximum (in ClCCl) was 537 nm.
Work on `c1ccc2c(c1)-c1cc(-n3c4ccccc4c4ccccc43)ccc1C21c2ccccc2-n2c3ccccc3c3cccc1c32` (configuration not stated) yielded an absorption maximum (in ClCCl) of 339 nm.
In the case of `C(=C\c1ncc2ccccc2n1)/c1ccc(N(c2ccccc2)c2ccccc2)cc1`, the absorption maximum (in ClCCl) is reported as 400 nm.
Work on `CCOC(=O)c1c(C(=O)OC)c(-c2cc3cc(OC)ccc3oc2=O)nn1-c1ccccc1` yielded an absorption maximum (in ClCCl) of 351 nm.
`Cc1ccc(N2C(c3ccccc3[NH-])=[NH+]C(c3ccccc3)C2c2ccccc2)cc1` (configuration not stated) gave an absorption maximum (in Cc1ccccc1) of 328 nm.
`CCOc1ccc2c(-c3nc(-c4ccccc4Cl)no3)cc(=O)oc2c1` gave an absorption maximum (in CCO) of 393 nm and an absorption maximum (in ClC(Cl)Cl) of 394 nm.
With `CCCCCCN1C(=O)c2cccc3c(-c4ccc(-c5cc(-c6ccc(C)cc6)nn5-c5ccccc5)s4)ccc(c23)C1=O` the absorption maximum (in ClCCl) was 389 nm.
`Cc1cc(C)c([B-]2(c3c(C)cc(C)cc3C)[O+]=P(c3ccccc3)(c3ccccc3)c3cc(-c4ccc(C(F)(F)F)cc4)sc3-c3sc(-c4ccc(C(F)(F)F)cc4)cc32)c(C)c1` showed an absorption maximum (in C1CCOC1) of 405 nm.
`CCC[Si](CCC)(CCC)c1cc2ccc3cccc4ccc(c1C(=O)NC(C)(C)C)c2c34` showed an absorption maximum (in ClC(Cl)Cl) of 382 nm.
`COc1ccc2cc(-c3ccc(-c4cc5ccc(OC)cc5oc4=O)cc3)c(=O)oc2c1` gave an absorption maximum (in ClC(Cl)Cl) of 362 nm.
With `Clc1ccc(/C=C/c2ccc(-c3nc4c5cccnc5c5ncccc5c4[nH]3)cc2)cc1` the absorption maximum (in C1CCOC1) was 376 nm, the absorption maximum (in CC#N) was 368 nm and the absorption maximum (in CO) was 360 nm. The absorption maximum (in ClCCl) was 377 nm.
With `CCCCCC(=O)c1cccc2sc3c(c12)P(=O)(c1ccccc1)c1ccccc1-3` (configuration not stated) the absorption maximum (in ClCCl) was 359 nm and 380 nm.
Compound `COC(=O)[C@H](Cc1ccc2oc3c(c2c1)=CC1=C(c2ccc(OC)cc2)c2cc4c5cc(C[C@H](NC(=O)OC(C)(C)C)C(=O)OC)ccc5oc4n2[B-](F)(F)[N+]=31)NC(=O)OC(C)(C)C` has an absorption maximum (in C1CCCCC1) of 586.5 nm, an absorption maximum (in CCOC(C)=O) of 581.5 nm and an absorption maximum (in CO) of 580 nm.
With `CCN(CC)c1cccc2c1ccc1c(=O)oc(-c3ccc(C(F)(F)F)cc3)cc12` the absorption maximum (in CC(C)=O) was 390 nm, the absorption maximum (in CCCCCC) was 388 nm and the absorption maximum (in CCCCCCCCO) was 393 nm. It also gave an absorption maximum (in CCCCO) of 392 nm, an absorption maximum (in CCCO) of 391 nm and an absorption maximum (in CCO) of 392 nm. The absorption maximum (in CCOC(C)=O) was 389 nm, the absorption maximum (in CN(C)C=O) was 394 nm and the absorption maximum (in CO) was 391 nm.
For `C(=C1c2ccccc2CCc2ccccc21)c1ccc(C=C2c3ccccc3CCc3ccccc32)cc1`, the absorption maximum (in C1CCOC1) was 330 nm.
In the case of `CC(C)(C)c1ccccc1N(c1ccccc1)c1ccc(S(=O)(=O)c2ccc(S(=O)(=O)c3ccc(N(c4ccccc4)c4ccccc4C(C)(C)C)cc3)cc2)cc1`, the absorption maximum (in Cc1ccccc1) is reported as 348 nm.
With `CC(=O)[B-]1(C(C)=O)OC(c2ccccc2)=CC(c2ccc3ccccc3c2)=[O+]1` the absorption maximum (in CC#N) was 400 nm and the absorption maximum (in ClC(Cl)(Cl)Cl) was 400 nm.
Compound `O=C1c2cccc3c(-n4c5ccccc5c5ccccc54)ccc(c23)C(=O)N1c1ccccc1` has an absorption maximum (in C1CCOC1) of 408 nm, an absorption maximum (in CCCCCC) of 403 nm and an absorption maximum (in ClC(Cl)Cl) of 405 nm. The absorption maximum (in ClCCl) was 419 nm.
In the case of `CCCCN(CCCC)c1ccc(C#Cc2cc(C#Cc3ccc(C(F)(F)F)cc3)c(C#Cc3ccc(C(F)(F)F)cc3)cc2C#Cc2ccc(N(CCCC)CCCC)cc2)cc1`, the absorption maximum (in ClCCl) is reported as 407 nm.
Work on `C#Cn1c(-c2cc(-c3nc4ccc(C)cc4n3C#C)cc(-c3nc4ccc(C)cc4n3C#C)c2)nc2ccc(C)cc21` yielded an absorption maximum (in ClCCl) of 306.5 nm.
